Several values for one entry are separate records, joined by “and”; a condition that tells them apart may be missing. Equal entries are not always repeated.
Conditions: Crystal, Calculated from knudsen effusion weight loss

O=C1c2ccccc2-c2cccc3cccc1c23 [7H-benz[de]anthracen-7-one]
Conditions | vapor or sublimation pressure [kPa]
388.22 K | 0.0001308
389.22 K | 0.0001419
390.22 K | 0.0001594
391.22 K | 0.0001742
392.19 K | 0.0001926
392.22 K | 0.0001937
393.23 K | 0.0002126
394.2 K | 0.000232
394.23 K | 0.0002331
395.24 K | 0.0002574
396.2 K | 0.0002786
396.23 K | 0.0002797
397.24 K | 0.0003067
398.2 K | 0.0003364
398.23 K | 0.0003376
399.24 K | 0.0003702
400.21 K | 0.0004108
400.24 K | 0.000412
401.24 K | 0.0004472
402.21 K | 0.0004911
402.24 K | 0.0004922
403.25 K | 0.000532
404.21 K | 0.0005813
406.21 K | 0.0007014
408.22 K | 0.0008383

c1ccc2cc3ccccc3cc2c1 [anthracene]
Conditions | vapor or sublimation pressure
323.31 K | 2.21e-05 kPa
327.16 K | 3.51e-05 kPa
331.27 K | 5.47e-05 kPa
335.32 K | 8.42e-05 kPa
339.31 K | 0.00013 kPa
343.32 K | 0.000197 kPa
347.26 K | 0.000281 kPa
347.33 K | 0.000289 kPa
351.27 K | 0.00043 kPa
351.33 K | 0.000426 kPa and 0.000424 kPa
355.26 K | 0.000604 kPa
355.33 K | 0.000634 kPa
357.34 K | 0.000783 kPa
359.26 K | 0.000876 kPa
359.33 K | 0.000945 kPa
363.34 K | 0.001374 kPa
367.27 K | 0.001898 kPa
367.35 K | 0.001967 kPa
371.35 K | 0.002859 kPa
375.36 K | 0.004145 kPa

c1ccc(-c2cc(-c3ccccc3)cc(-c3ccccc3)c2)cc1 [1,3,5-triphenylbenzene]
Conditions | vapor or sublimation pressure
404.34 K | 9.95e-05 kPa
405.34 K | 0.0001076 kPa
407.27 K | 0.000136 kPa
408.34 K | 0.0001462 kPa
408.35 K | 0.0001487 kPa
410.36 K | 0.0001809 kPa
412.35 K | 0.0002238 kPa and 0.0002202 kPa
413.28 K | 0.000252 kPa
414.37 K | 0.0002718 kPa
416.35 K | 0.0003305 kPa
416.37 K | 0.0003361 kPa
418.28 K | 0.000412 kPa
418.39 K | 0.000405 kPa
420.36 K | 0.0004929 kPa
420.39 K | 0.0005004 kPa
422.41 K | 0.000601 kPa
423.28 K | 0.000671 kPa
424.37 K | 0.000729 kPa
424.42 K | 0.0007385 kPa
426.43 K | 0.0008947 kPa
428.29 K | 0.001087 kPa
428.38 K | 0.00108 kPa
428.45 K | 0.001096 kPa
